Drawing on ChEMBL document CHEMBL1938312, “Design and combinatorial synthesis of a novel kinase-focused library using click chemistry-based fragment assembly” (Bioorg Med Chem Lett, 2012), this text covers inhibition and IC50 for 4 compounds.

Active and inactive are the calls of the source. The calls are words filed in the database; no cut-off is given here.

In test [1] the target is Epidermal growth factor receptor (Homo sapiens) (UniProt P00533). Description: Inhibition of EGFR at 10 uM by colorimetric analysis.
Epidermal growth factor receptor (Homo sapiens), sequence (P00533 whole entry): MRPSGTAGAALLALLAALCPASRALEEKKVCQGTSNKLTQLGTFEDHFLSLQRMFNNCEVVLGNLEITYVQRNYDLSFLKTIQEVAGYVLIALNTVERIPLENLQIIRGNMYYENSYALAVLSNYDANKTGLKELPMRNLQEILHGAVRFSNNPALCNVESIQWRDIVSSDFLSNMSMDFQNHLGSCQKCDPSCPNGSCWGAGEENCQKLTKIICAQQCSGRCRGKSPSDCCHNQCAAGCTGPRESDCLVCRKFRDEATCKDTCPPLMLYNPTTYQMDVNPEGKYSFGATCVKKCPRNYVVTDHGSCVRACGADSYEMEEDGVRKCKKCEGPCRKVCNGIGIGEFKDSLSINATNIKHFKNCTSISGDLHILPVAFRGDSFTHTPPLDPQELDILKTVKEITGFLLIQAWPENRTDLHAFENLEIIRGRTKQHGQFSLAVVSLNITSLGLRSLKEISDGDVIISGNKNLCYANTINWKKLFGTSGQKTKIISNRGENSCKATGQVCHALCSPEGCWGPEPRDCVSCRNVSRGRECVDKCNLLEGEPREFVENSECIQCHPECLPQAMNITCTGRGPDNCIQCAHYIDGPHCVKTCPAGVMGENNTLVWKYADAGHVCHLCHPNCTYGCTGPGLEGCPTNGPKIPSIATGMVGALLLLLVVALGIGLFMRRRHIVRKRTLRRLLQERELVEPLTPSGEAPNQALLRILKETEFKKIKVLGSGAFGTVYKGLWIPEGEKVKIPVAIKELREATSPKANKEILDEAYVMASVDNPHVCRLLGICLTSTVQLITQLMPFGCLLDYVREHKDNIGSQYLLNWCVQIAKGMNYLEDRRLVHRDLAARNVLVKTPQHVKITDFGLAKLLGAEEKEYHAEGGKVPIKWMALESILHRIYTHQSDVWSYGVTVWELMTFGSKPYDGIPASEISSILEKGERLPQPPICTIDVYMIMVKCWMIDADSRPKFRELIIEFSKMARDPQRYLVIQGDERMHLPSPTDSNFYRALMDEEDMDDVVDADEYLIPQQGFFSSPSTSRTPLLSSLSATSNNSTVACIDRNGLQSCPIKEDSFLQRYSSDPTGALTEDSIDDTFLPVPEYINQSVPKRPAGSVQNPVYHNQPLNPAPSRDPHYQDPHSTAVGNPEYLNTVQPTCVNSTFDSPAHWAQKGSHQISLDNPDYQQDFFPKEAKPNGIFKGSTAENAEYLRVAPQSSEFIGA
In test [2] the target is T1, Ephrin type-B receptor 4 (Homo sapiens) (UniProt P54760).
T1 sequence (whole entry): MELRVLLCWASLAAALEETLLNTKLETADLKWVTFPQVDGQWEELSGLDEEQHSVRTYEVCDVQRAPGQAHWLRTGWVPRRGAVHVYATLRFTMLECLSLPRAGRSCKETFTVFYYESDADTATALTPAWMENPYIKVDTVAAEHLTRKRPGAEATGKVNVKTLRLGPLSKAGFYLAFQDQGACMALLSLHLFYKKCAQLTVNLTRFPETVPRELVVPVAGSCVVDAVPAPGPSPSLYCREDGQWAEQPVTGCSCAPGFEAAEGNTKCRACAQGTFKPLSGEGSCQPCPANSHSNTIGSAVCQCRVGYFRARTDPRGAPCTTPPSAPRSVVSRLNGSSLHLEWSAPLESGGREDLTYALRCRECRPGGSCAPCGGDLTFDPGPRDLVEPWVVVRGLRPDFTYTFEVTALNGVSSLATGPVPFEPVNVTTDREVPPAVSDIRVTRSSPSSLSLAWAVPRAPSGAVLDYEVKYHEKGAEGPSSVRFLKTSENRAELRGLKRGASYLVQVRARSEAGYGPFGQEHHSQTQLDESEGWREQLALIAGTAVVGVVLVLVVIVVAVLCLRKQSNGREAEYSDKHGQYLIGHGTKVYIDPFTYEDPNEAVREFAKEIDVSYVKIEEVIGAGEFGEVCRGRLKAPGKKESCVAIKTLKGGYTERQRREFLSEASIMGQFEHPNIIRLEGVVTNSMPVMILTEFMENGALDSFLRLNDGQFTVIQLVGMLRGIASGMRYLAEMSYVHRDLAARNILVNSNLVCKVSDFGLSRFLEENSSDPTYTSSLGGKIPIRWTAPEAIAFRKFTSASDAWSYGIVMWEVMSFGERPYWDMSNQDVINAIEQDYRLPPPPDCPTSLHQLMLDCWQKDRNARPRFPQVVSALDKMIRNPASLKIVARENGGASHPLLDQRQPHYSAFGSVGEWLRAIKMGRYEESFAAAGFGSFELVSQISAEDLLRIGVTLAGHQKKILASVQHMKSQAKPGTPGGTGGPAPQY
Description: Inhibition of EPHB4 at 10 uM by colorimetric analysis.

Test [3] concerns the target Insulin-like growth factor 1 receptor (Homo sapiens) (UniProt P08069). Description: Inhibition of IGF1R at 10 uM by colorimetric analysis.
The target in test [4] is Death-associated protein kinase 1 (Homo sapiens) (UniProt P53355). Kind of test: Inhibition of DAPK1 at 10 uM by colorimetric analysis.
Death-associated protein kinase 1 (Homo sapiens), sequence (P53355 whole entry, looked up): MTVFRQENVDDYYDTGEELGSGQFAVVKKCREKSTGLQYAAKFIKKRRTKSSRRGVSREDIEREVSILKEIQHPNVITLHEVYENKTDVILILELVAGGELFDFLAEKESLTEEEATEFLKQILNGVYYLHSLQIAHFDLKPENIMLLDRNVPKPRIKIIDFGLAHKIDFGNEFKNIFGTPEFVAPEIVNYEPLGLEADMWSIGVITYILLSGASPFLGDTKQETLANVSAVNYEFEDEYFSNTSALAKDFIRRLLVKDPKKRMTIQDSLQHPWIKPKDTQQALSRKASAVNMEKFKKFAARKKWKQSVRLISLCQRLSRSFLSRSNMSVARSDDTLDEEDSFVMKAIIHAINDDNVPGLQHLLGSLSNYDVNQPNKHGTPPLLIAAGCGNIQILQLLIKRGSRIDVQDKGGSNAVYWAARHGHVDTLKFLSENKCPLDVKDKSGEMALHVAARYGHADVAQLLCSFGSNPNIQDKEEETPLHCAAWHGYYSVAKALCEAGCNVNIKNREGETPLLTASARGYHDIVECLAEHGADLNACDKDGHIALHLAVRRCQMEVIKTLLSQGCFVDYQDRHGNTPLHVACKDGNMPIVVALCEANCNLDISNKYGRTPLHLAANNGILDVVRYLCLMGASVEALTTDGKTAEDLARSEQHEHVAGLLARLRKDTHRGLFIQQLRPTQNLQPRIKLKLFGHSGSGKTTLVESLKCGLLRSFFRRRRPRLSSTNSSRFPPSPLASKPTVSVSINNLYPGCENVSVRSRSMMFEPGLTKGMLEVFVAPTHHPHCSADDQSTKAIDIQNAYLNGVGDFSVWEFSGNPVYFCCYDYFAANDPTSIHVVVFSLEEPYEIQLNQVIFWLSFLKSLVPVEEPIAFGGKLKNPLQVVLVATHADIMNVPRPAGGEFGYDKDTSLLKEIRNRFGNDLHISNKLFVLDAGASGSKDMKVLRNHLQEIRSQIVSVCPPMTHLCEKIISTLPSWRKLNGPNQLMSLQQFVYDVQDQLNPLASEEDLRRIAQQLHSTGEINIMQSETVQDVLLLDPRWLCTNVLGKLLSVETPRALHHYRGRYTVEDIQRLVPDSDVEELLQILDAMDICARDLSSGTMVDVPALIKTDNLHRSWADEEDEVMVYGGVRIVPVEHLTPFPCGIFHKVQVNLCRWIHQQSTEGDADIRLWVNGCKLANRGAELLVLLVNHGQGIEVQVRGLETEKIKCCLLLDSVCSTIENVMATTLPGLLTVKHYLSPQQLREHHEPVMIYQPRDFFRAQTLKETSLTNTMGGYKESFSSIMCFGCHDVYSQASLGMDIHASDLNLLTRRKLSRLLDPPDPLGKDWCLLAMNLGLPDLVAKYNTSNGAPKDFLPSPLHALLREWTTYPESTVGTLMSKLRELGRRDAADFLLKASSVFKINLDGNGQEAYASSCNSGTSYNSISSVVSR
In test [5] the target is cAMP-dependent protein kinase catalytic subunit alpha (Homo sapiens) (UniProt P17612). Description: Inhibition of PKACa at 10 uM by colorimetric analysis.
For test [6], the target named is T2, Receptor-type tyrosine-protein kinase FLT3 (Homo sapiens, UniProt P36888).
T2 sequence (P36888 whole entry): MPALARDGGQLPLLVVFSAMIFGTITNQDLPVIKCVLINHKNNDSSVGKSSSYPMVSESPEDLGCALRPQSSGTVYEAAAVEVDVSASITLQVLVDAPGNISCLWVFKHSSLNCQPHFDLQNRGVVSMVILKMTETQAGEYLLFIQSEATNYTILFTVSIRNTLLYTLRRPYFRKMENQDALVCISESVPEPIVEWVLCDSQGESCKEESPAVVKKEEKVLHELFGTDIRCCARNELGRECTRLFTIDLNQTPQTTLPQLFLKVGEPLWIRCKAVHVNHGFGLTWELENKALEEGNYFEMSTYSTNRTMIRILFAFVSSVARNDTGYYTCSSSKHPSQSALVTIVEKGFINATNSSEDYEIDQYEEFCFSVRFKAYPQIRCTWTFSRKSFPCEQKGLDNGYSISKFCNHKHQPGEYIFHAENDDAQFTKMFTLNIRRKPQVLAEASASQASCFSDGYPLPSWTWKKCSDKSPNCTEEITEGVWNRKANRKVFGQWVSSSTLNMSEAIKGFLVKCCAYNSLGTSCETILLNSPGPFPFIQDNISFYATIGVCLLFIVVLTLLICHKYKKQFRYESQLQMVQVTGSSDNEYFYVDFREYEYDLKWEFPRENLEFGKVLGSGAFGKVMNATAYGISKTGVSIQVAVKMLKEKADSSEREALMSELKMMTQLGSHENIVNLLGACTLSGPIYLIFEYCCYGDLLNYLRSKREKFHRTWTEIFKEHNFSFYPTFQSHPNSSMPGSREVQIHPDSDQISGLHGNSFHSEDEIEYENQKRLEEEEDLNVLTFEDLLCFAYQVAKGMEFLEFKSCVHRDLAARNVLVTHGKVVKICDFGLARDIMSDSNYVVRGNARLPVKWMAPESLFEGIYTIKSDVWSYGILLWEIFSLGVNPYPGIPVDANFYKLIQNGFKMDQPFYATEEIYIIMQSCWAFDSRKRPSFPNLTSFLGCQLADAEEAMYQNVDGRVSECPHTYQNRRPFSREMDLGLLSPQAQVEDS
Kind of test: Inhibition of FLT3 by colorimetric analysis.

Insulin-like growth factor 1 receptor (Homo sapiens), sequence (P08069 31-736 limits assumed): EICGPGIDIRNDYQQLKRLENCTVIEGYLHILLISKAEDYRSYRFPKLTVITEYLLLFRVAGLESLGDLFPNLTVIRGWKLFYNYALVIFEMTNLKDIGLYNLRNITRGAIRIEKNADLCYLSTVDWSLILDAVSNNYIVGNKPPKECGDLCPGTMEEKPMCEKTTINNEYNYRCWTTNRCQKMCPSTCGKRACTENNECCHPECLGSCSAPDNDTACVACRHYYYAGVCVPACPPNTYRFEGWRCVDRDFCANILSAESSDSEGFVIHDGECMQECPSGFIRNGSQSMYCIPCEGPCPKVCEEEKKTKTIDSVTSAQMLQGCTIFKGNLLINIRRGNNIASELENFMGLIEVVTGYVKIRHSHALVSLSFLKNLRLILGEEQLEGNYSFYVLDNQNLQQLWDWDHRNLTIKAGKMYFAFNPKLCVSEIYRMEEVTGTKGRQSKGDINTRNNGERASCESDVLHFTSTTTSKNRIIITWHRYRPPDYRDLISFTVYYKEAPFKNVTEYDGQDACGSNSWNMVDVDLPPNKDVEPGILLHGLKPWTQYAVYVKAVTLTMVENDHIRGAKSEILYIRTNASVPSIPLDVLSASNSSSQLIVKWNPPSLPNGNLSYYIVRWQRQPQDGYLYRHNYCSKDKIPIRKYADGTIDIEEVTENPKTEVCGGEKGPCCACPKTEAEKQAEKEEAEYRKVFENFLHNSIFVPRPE
Insulin-like growth factor 1 receptor (Homo sapiens), sequence (P08069 741-1367 limits assumed): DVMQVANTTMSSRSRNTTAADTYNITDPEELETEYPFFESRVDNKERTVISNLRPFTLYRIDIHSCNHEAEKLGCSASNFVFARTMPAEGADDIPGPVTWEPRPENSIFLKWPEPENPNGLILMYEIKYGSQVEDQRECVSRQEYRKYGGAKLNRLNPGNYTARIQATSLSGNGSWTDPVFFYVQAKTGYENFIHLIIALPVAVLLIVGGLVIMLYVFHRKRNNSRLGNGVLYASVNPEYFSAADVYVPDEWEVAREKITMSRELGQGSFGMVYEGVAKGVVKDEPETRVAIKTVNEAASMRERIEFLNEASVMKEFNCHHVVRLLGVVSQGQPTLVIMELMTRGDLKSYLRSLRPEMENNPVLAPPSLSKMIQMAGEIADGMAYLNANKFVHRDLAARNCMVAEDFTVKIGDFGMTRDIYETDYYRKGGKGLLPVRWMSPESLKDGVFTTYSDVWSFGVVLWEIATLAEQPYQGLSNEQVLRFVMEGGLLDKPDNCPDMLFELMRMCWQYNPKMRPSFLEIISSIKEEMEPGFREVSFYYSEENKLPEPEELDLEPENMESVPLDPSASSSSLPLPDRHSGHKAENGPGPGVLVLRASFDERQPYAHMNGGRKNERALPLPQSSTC

Regarding `Clc1ccc(-n2cc(-c3ccncc3)nn2)cc1`, the inhibition entry in test [1], in test [2] and in test [3] was “inactive” throughout. Moreover, the inhibition entry in test [4] and in test [5] was “Active” in each case. Inhibition in test [6] was half-maximal at 5.8 µM (IC50).
On to `Clc1ccc(-n2nncc2-c2ccncc2)cc1`, for which the inhibition result in test [1], in test [2] and in test [3] was “inactive” in each case. Also, the inhibition entry in test [4] and in test [5] was “Active” throughout. Moreover, in test [6], the IC50 amounted to 1.7 µM.
As for `Clc1cccc(-n2nncc2-c2ccncc2)c1`, the inhibition entry in test [1], in test [2] and in test [3] was “inactive” in each case. Moreover, the inhibition entry in test [4] and in test [5] was “Active” in each case. The compound further displayed an IC50 in test [6] of 4.4 µM.
On to `Clc1cccc(-n2cc(-c3ccncc3)nn2)c1`, for which the inhibition entry in test [1], in test [2] and in test [3] was “inactive” throughout. Besides, the inhibition result in test [4] and in test [5] was “Active” throughout. For the same compound, in test [6], the IC50 stood at 10.5 µM.
